{"source": "patent US20110092535A1", "about": "“Novel Epilepsy Treatment” (priority 2006, published 2011)", "origin": "cited, not measured here", "tested_on": "maximal electric shock-induced seizures", "settings": "rats", "note": "Like-named read-outs stand apart in the source and are kept apart here.", "data": [{"smiles": "Cc1nccn1CC1CCc2c(c3ccccc3n2C)C1=O", "note": "(centres unmarked) [Ondansetron]", "values": [{"measurement": "effect against maximal electric shock-induced seizures", "setting": "higher doses (>2 mg/kg)", "value": "ineffective"}, {"measurement": "effect against maximal electric shock-induced seizures", "setting": "low doses", "value": "effective"}]}]}
